Experimental data reported in article PMC8003416, “Modulation of Human Phenylalanine Hydroxylase by 3-Hydroxyquinolin-2(1H)-One Derivatives” (Biomolecules, 2021).
Entries after “also recorded” stand apart in the source; their conditions may differ. Like-named read-outs stand apart in the source and are kept apart here.

Columns and labels:
[1] = biological target: T1, human phenylalanine hydroxylase (hPAH) (Homo sapiens, UniProt P00439); assay: Steady-state kinetics of hPAH for L-Phe; type: biochemical; conditions: 100 μM 3HQ; for ki (substrate inhibition) / S0.5 (L-Phe concentration at half-maximal activity) / h (Hill coefficient): 75 μM BH4, 25 °C; for S0.5 (L-Phe concentration at half-maximal activity): Km for compounds 3 and 11 (Michaelis–Menten fits); for Vmax: 75 μM BH4, L-Phe 25 μM to 2.5 mM, 25 °C; for Activation Ratio (L-Phe activation): 100 μM substrate; for kcat/S0.5 (catalytic efficiency): calculated with hPAH subunit MM 55 kDa
T1 construct: Recombinant full-length wild-type (WT) hPAH was expressed in E. coli Top10 cells in fusion with a hexa-histidyl peptide; made in house; host or cells: E. coli Top10
T1 sequence (P00439 1-452): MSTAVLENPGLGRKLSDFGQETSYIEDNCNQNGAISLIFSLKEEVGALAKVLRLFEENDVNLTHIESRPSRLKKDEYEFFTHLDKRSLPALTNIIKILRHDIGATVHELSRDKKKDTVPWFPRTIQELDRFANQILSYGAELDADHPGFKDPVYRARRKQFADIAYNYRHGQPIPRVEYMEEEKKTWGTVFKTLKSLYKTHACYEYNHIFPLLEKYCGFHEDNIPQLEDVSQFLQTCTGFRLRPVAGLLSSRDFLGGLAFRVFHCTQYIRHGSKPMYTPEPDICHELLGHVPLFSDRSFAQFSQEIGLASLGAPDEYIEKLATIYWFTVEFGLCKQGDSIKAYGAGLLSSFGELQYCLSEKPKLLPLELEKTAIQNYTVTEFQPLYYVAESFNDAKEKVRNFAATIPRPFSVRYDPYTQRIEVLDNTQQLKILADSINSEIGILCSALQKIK
Protocol: The hPAH activity was measured essentially as previously described. Briefly, the enzymatic reaction was performed in a 200 μL final volume, containing 250 mM Na-HEPES, pH 7, 0.1 mg/mL catalase (Sigma-Aldrich; St. Louis, MO, USA), 5 μg (final concentration of 0.112 μM of tetramer) of recombinant hPAH tetramers and 100 μM (NH4)2Fe(II)SO4. Using 100 μM L-Phe and 100 μM of tested compound, three experimental conditions were used to study the compounds’ modulatory effect, namely: non activated (NA), 3HQ-activated (3HQ-A) and substrate/3HQ-activated (Phe/3HQ-A) (Supplementary Figure S3). The reaction was started by addition of 75 μM BH4 (Schircks Laboratories; Bauma, Switzerland) prepared in 5 mM ascorbic acid. In the NA assay, the L-Phe substrate and tested compounds were added together with 75 µM BH4 at the start of the hydroxylation reaction. In the 3HQ-A condition, hPAH was pre-incubated with the tested compound for 4 min at 25 °C and the reaction was started by the addition of BH4 together with L-Phe. In the Phe/3HQ-A condition, hPAH was pre-incubated simultaneously with L-Phe and the tested compound (4 min, 25 °C). Appropriate control reactions were performed where the compounds were omitted and 1% DMSO was used. Kinetic parameters were determined using variable concentrations of L-Phe (25 to 2500 μM) and fixed concentrations of BH4 (75 μM) and tested compound (100 μM). After a 1-min incubation, the reaction was stopped, and the amount of L-Tyr produced was quantified by HPLC as previously described. The specific hPAH enzymatic activity is expressed as nmol of L-Tyr produced during 1 min per mg of protein (nmol L-Tyr.min^−1.mg^−1). The steady-state kinetic data were analyzed by nonlinear regression analysis using GraphPad Prism (La Jolla, CA, USA). Data was fitted to the modified Hill equation accounting for cooperative substrate binding as well as substrate inhibition (Equation (1)), to the modified Michaelis–Menten equation which accounts for substrate inhibition (Equation (2)) and to the non-modified Michaelis–Menten equation:v = (Vmax + Vi ([S]^x/Ki^x))/(1 + (K^h/[S]^h) + ([S]^x/Ki^x))(1) v = (Vmax [S])/(Km + [S](1 + [S]/Ki))(2)

[2] = biological target: T1, human phenylalanine hydroxylase (hPAH); assay: Differential scanning fluorimetry (thermal denaturation); type: binding; conditions: for ΔTm1 (regulatory domain) / ΔTm2 (catalytic domain): 100 μM compound vs 1% DMSO control, * S.D. < 0.01
Protocol: Thermal denaturation profiles of recombinant hPAH were obtained by differential scanning fluorimetry (DSF) in a C1000 Touch thermal cycler equipped with a CFX96 optical reaction module (Bio-Rad; Hercules, CA, USA) as previously described. Briefly, DSF assays (n = 3) were performed using 100 μg/mL hPAH tetramers (final concentration of 0.45 μM of tetramer), SYPRO Orange (5000-fold commercially available stock solution; Invitrogen; Carlsbad, CA, USA) at a 2.5-x final concentration and ramping the temperature from 20 to 90 °C, at 1 °C/min. Fluorescence data were acquired using the FRET channel. Data were processed using CFX Manager Software V3.0 (Bio-Rad) and the GraphPad Prism. Temperature scan curves were fitted to a biphasic dose–response function and the Tm values were obtained from the midpoint of the first (Tm1) and second transitions (Tm2) corresponding, respectively, to the thermal denaturation of the regulatory and catalytic domains. The Tm values in the presence of 3HQ were compared to those obtained in the presence of 1% DMSO (vehicle control) and a change in the Tm was considered significant when the |ΔTm| ≥ 2 °C [22].

[3] = biological target: T1, human phenylalanine hydroxylase (hPAH); assay: Limited proteolysis of hPAH by trypsin; conditions: 100 μM in 1% DMSO, 25 °C, trypsin:hPAH 1:200; control 0.41 ± 0.03
Protocol: Limited proteolysis of purified hPAH was performed as previously described, at 25 °C in SEC buffer and with a trypsin (Sigma-Aldrich) to hPAH ratio of 1:200 (by mass; final hPAH protein concentration 300 μg/mL), in the presence of 100 µM of 3HQ derivatives or 1% DMSO. Control assays were also performed in the presence of 100 μM and 1 mM L-Phe. At different time points (0 to 60 min), aliquots of the reaction were mixed with soybean trypsin inhibitor (Sigma-Aldrich) at a protease to inhibitor ratio of 1:1.5 (by mass) and analyzed by SDS-PAGE (10% polyacrylamide). The band corresponding to full-length hPAH was quantified by densitometric analysis using the Quantity One 1D software v4.6.3 (Bio-Rad). Data were fitted to a single exponential decay equation to obtain the decay constant of proteolysis (kP). Assays were performed in duplicate and data represent the mean ± SEM.

[4] = biological target: T1, human phenylalanine hydroxylase (hPAH); assay: Time-dependent loss of hPAH activity at 42 °C; type: biochemical; conditions: 100 μM compound; for remaining activity at 100 µM: read-out: hPAH residual activity, % of control sample; for protective effect on hPAH activity over time: up to 120 min at 42 °C
Protocol: The hPAH time-dependent loss of activity at a fixed temperature was assessed in a period of 120 min, in the absence and presence of compounds. In these assays, the enzymatic reaction was performed essentially as described above for the Phe/3HQ-A condition. Compounds (100 μM) were pre-incubated with the enzyme at 42 °C. After a 30, 45, 60, 90 and 120 min period, an aliquot of the protein (5 μg) was incubated, at 37 °C, with 100 μM L-Phe for 4 min, and the reaction proceeded as above at 37 °C [19].

[5] = 100 μM compound in 1% DMSO, control 43.4 ± 0.6
[6] = 100 μM compound in 1% DMSO, control 53.5 ± 0.4

| proteolytic rate (kP) [3] | kcat/S0.5 (catalytic efficiency) [1] | ΔTm2 (catalytic domain) [2] | protective effect on hPAH activity over time [4] | Tm1 (regulatory domain) ([2]; 1 mM L-Phe, 1% DMSO) | Tm2 (catalytic domain) ([2]; 1 mM L-Phe, 1% DMSO) | Compound | effect on hPAH kinetic behaviour [1] | ki (substrate inhibition) [1] | S0.5 (L-Phe concentration at half-maximal activity) [1] | Vmax [1] | Activation Ratio (L-Phe activation) [1] | Tm1 (regulatory domain) [2, 5] | Tm2 (catalytic domain) [2, 6] | ΔTm1 (regulatory domain) [2] | remaining activity at 100 µM ([4]; 90 min at 42 °C) | remaining activity at 100 µM ([4]; 120 min at 42 °C) | h (Hill coefficient) [1] | remaining activity at 100 µM ([4]; 60 min at 42 °C) |
| --- | --- | --- | --- | --- | --- | --- | --- | --- | --- | --- | --- | --- | --- | --- | --- | --- | --- | --- |
| 0.30 ± 0.01 min⁻¹ | 35000 M⁻¹ s⁻¹ | -1.3 ± 0.01 °C | protective effect was not observed | – | – | O=C(NCCc1ccccc1)c1c(O)c(=O)[nH]c2ccc(OC(F)(F)F)cc12 [Compound 8] | weak competitive inhibitors | 7.2 ± 0.2 mM | 115 ± 9 µM | 4.38 ± 0.94 10^3 nmol Tyr.min^−1.mg^−1 | 1.7 | 43.3 ± 0.1 °C | 52.2 ± 0.3 °C | – | – | – | 1.2 ± 0.3 | – |
| 0.29 ± 0.04 min⁻¹ | 21700 M⁻¹ s⁻¹ | +0.1 ± 0.01 °C | protective effect was not observed | – | – | CCOC(=O)[C@H](Cc1ccccc1)NC(=O)c1c(O)c(=O)[nH]c2ccc(OC(F)(F)F)cc12 [Compound 3] | weak competitive inhibitors; also recorded: loss of cooperativity | – | 206 ± 99 µM | 4.82 ± 0.64 10^3 nmol Tyr.min^−1.mg^−1 | 1.3 | 51.7 ± 0.4 °C | 53.6 ± 0.2 °C | +8.3 ± 0.06 °C | – | – | – | – |
| 0.15 ± 0.01 min⁻¹ | – | – | – | 51.0 ± 0.2 °C | 58.4 ± 0.04 °C | N[C@@H](Cc1ccccc1)C(=O)O [L-Phe, L-phenylalanine, reference compound] | – | – | – | – | – | – | – | – | – | – | – | – |

| Compound | proteolytic rate (kP) [3] | kcat/S0.5 (catalytic efficiency) [1] | ΔTm2 (catalytic domain) [2] | protective effect on hPAH activity over time [4] | Tm1 (regulatory domain) ([2]; 1 mM L-Phe, 1% DMSO) | Tm2 (catalytic domain) ([2]; 1 mM L-Phe, 1% DMSO) | effect on hPAH kinetic behaviour [1] | ki (substrate inhibition) [1] | S0.5 (L-Phe concentration at half-maximal activity) [1] | Vmax [1] | Activation Ratio (L-Phe activation) [1] | Tm1 (regulatory domain) [2, 5] | Tm2 (catalytic domain) [2, 6] | ΔTm1 (regulatory domain) [2] | remaining activity at 100 µM ([4]; 90 min at 42 °C) | remaining activity at 100 µM ([4]; 120 min at 42 °C) | h (Hill coefficient) [1] | remaining activity at 100 µM ([4]; 60 min at 42 °C) |
| --- | --- | --- | --- | --- | --- | --- | --- | --- | --- | --- | --- | --- | --- | --- | --- | --- | --- | --- |
| COC(=O)CNC(=O)c1c(O)c(=O)[nH]c2ccc(OC(F)(F)F)cc12 [Compound 11] | 0.41 ± 0.01 min⁻¹ | – | – | – | – | – | loss of cooperativity | 2.5 ± 0.3 mM | 386 ± 97 µM | 7.75 ± 1.23 ** 10^3 nmol Tyr.min^−1.mg^−1 | 1.5 | 47.4 ± 0.1 °C | 53.6 ± 0.2 °C | +4.0 ± 0.01 °C | 117 ± 33% | 168 ± 64% | – | – |
| COC(=O)CC[C@H](NC(=O)c1c(O)c(=O)[nH]c2ccc(OC(F)(F)F)cc12)C(=O)OC [Compound 9] | 0.38 ± 0.04 min⁻¹ | 33300 M⁻¹ s⁻¹ | -0.5 ± 0.01 °C | – | – | – | – | 23.3 ± 0.5 mM | 108 ± 34 µM | 3.94 ± 0.64 10^3 nmol Tyr.min^−1.mg^−1 | 1.4 | 43.5 ± 0.1 °C | 53.0 ± 0.1 °C | +0.2 ± 0.01 °C | 121 ± 32% | 176 ± 32% | 1.9 ± 0.8 | 136 ± 7% |
